Test results: the supplement of paper PMC13380429
Where a name gives a salt, the structure may show the parent alone.

Key:
Settings in all cases: 72 h
[1] = tested on: Vero E6; experiment: cell viability relative to DMSO; higher = less toxic
[2] = tested on: U2OS; experiment: as above
[3] = tested on: Caco-2; experiment: as above
[4] = tested on: HepG2; experiment: as above
[5] = tested on: Vero E6; experiment: drug sensitivity score (DSS) for viability; higher = more toxic; extreme values may be limits of the assay
[6] = tested on: U2OS; experiment: as above
[7] = tested on: Caco-2; experiment: as above
[8] = tested on: HepG2; experiment: as above
[9] = tested on: Vero E6; experiment: relative viability EC50 (midpoint between 100% and the lowest measured viability); higher = less toxic
[10] = tested on: U2OS; experiment: as above
[11] = tested on: Caco-2; experiment: as above
[12] = tested on: HepG2; experiment: as above
[13] = tested on: Calu-3; experiment: drug sensitivity score (DSS) for viability; higher = more toxic; extreme values may be limits of the assay

| Structure (SMILES) | cell viability ([1]; 1 nM) [%] | cell viability ([1]; 10 nM) [%] | cell viability ([1]; 100 nM) [%] | cell viability ([1]; 1000 nM) [%] | cell viability ([1]; 10000 nM) [%] | cell viability ([2]; 1 nM) [%] | cell viability ([2]; 10 nM) [%] | cell viability ([2]; 100 nM) [%] | cell viability ([2]; 1000 nM) [%] | cell viability ([2]; 10000 nM) [%] | cell viability ([3]; 1 nM) [%] | cell viability ([3]; 10 nM) [%] | cell viability ([3]; 100 nM) [%] | cell viability ([3]; 1000 nM) [%] | cell viability ([3]; 10000 nM) [%] | cell viability ([4]; 1 nM) [%] | cell viability ([4]; 10 nM) [%] | cell viability ([4]; 100 nM) [%] | cell viability ([4]; 1000 nM) [%] | cell viability ([4]; 10000 nM) [%] | drug sensitivity score [5] | drug sensitivity score [6] | drug sensitivity score [7] | drug sensitivity score [8] | relative viability EC50 [9] [µM] | relative viability EC50 [10] [µM] | relative viability EC50 [11] [µM] | relative viability EC50 [12] [µM] | drug sensitivity score [13] |
| --- | --- | --- | --- | --- | --- | --- | --- | --- | --- | --- | --- | --- | --- | --- | --- | --- | --- | --- | --- | --- | --- | --- | --- | --- | --- | --- | --- | --- | --- |
| O=[N+]([O-])c1cnc(Sc2nnc(O)n2-c2ccc3c(c2)OCCO3)s1 [BI-78D3] | 101 | 95.6 | 99.3 | 94.7 | 0.4 | 98.9 | 98 | 94.5 | 97.9 | 0.1 | 99.2 | 102 | 94 | 88.3 | 7 | 103 | 102 | 95.8 | 70.3 | 1.4 | 6.3 | 5.8 | 7.1 | 9.8 | 2.75 | 3.02 | 2.14 | 1.4 | – |
| CN(C)[C@@H]1C(O)=C(C(N)=O)C(=O)[C@@]2(O)C(O)=C3C(=O)c4c(O)ccc(Cl)c4[C@@](C)(O)[C@H]3C[C@@H]12 [CHLORTETRACYCLINE HYDROCHLORIDE] | – | – | – | – | – | – | – | – | – | – | – | – | – | – | – | – | – | – | – | – | 0 | 0 | – | 0 | – | – | – | – | 0 |
| CCOC(=O)[C@H](Cc1ccccc1)NC(=O)c1cc(Cl)c(OCCN2CCN(C)CC2)c(Cl)c1O [JTE-607] | 103 | 99.1 | 104 | 101 | 103 | 99.9 | 98.8 | 95.7 | 102 | 80 | 90.9 | 95.5 | 99.8 | 103 | 76.1 | 107 | 109 | 98.6 | 56.8 | 41.9 | 0 | 0.5 | 0.7 | 8.4 | > 10 | > 10 | > 10 | 0.606 | – |
| CCNC(=O)CC[C@H](N)C(=O)O [L-theanine] | 95.8 | 99 | 105 | 104 | 88 | 99.8 | 103 | 95.8 | 101 | 102 | 98.2 | 95 | 98.7 | 93.1 | 105 | 95.8 | 89.8 | 95.5 | 89.8 | 99.4 | 0 | 0 | 0 | 0 | > 10 | > 10 | > 10 | > 10 | – |
